Measured values as given in ChEMBL document CHEMBL4616649, “Genomics-Metabolomics Profiling Disclosed Marine Vibrio spartinae 3.6 as a Producer of a New Branched Side Chain Prodigiosin” (2020).

What was measured:
Assay type in all cases: functional
Listeria monocytogenes = assay: Antibacterial activity against Listeria monocytogenes MB677 assessed as reduction in microbial growth after 20 hrs by microdilution method; conditions: MB677, 20 h
Staphylococcus aureus [1] = assay: Antibacterial activity against Staphylococcus aureus ATCC 29213 assessed as reduction in microbial growth after 20 hrs by microdilution method; conditions: ATCC 29213, 20 h
Staphylococcus aureus [2] = assay: Antibacterial activity against Staphylococcus aureus 6538P assessed as reduction in microbial growth after 20 hrs by microdilution method
[3] = test system: Stenotrophomonas maltophilia; assay: Antibacterial activity against Stenotrophomonas maltophilia ATCC 700475 assessed as reduction in microbial growth after 20 hrs by microdilution method; conditions: ATCC 700475, 20 h
[4] = test system: Staphylococcus epidermidis; assay: Antibacterial activity against Staphylococcus epidermidis ATCC 35984 assessed as reduction in microbial growth after 20 hrs by microdilution method; conditions: ATCC 35984, 20 h
[5] = test system: Stenotrophomonas maltophilia; assay: Antibacterial activity against Stenotrophomonas maltophilia ATCC 13637 assessed as reduction in microbial growth after 20 hrs by microdilution method; conditions: ATCC 13637, 20 h
[6] = test system: Stenotrophomonas maltophilia; assay: Antibacterial activity against Stenotrophomonas maltophilia ATCC 13636 assessed as reduction in microbial growth after 20 hrs by microdilution method; conditions: ATCC 13636, 20 h
Staphylococcus aureus [7] = assay: Antibacterial activity against Staphylococcus aureus ATCC 23235 assessed as reduction in microbial growth after 20 hrs by microdilution method; conditions: ATCC 23235, 20 h

Structure (SMILES) | MIC (Listeria monocytogenes) | MIC50 (Listeria monocytogenes) | MIC (Staphylococcus aureus [1]) | MIC50 (Staphylococcus aureus [1]) | MIC (Staphylococcus aureus [2]) | MIC50 (Staphylococcus aureus [2]) | MIC [3] | MIC50 [3] | MIC [4] | MIC50 [4] | MIC [5] | MIC50 [5] | MIC [6] | MIC50 [6] | MIC (Staphylococcus aureus [7]) | MIC50 (Staphylococcus aureus [7])
COc1cc(-c2ccc[nH]2)[nH]c1/C=C1\N=C(C)C2=C1C(C)CCC2 (stereo not drawn) | 4 µg/mL | 0.4 µg/mL | 4 µg/mL | 0.06 µg/mL | 3.3 µg/mL | 0.05 µg/mL | 5.3 µg/mL | 1.7 µg/mL | 3.3 µg/mL | 0.5 µg/mL | 3.3 µg/mL | 2 µg/mL | 3.3 µg/mL | 1 µg/mL | 3.3 µg/mL | 0.08 µg/mL
O=C(N[C@H](CO)[C@H](O)c1ccc([N+](=O)[O-])cc1)C(Cl)Cl [CHLORAMPHENICOL] |  |  |  |  |  |  | 4 µg/mL |  |  |  | 3.3 µg/mL |  | 4 µg/mL |  |  | 
CN[C@H](CC(C)C)C(=O)N[C@H]1C(=O)N[C@@H](CC(N)=O)C(=O)N[C@H]2C(=O)N[C@H]3C(=O)N[C@H](C(=O)N[C@H](C(=O)O)c4cc(O)cc(O)c4-c4cc3ccc4O)[C@H](O)c3ccc(c(Cl)c3)Oc3cc2cc(c3O[C@@H]2O[C@H](CO)[C@@H](O)[C@H](O)[C@H]2O[C@H]2C[C@](C)(N)[C@H](O)[C@H](C)O2)Oc2ccc(cc2Cl)[C@H]1O [VANCOMYCIN] |  |  |  |  | 1.7 µg/mL |  |  |  |  |  |  |  |  |  |  | 
CC1(C)S[C@@H]2[C@H](NC(=O)[C@H](N)c3ccccc3)C(=O)N2[C@H]1C(=O)O [AMPICILLIN] | 0.8 µg/mL |  |  |  |  |  |  |  |  |  |  |  |  |  |  | 
COc1cc(-c2ccc[nH]2)[nH]c1/C=C1/C=C(CCCCC(C)C)C(C)=N1 | 21 µg/mL | 3.3 µg/mL | 27 µg/mL | 0.5 µg/mL | 21 µg/mL | 0.2 µg/mL | 27 µg/mL | 4 µg/mL | 27 µg/mL | 2.7 µg/mL | 27 µg/mL | 3.3 µg/mL | 27 µg/mL | 3.3 µg/mL | 21 µg/mL | 0.5 µg/mL
CCCCCC1=C/C(=C\c2[nH]c(-c3ccc[nH]3)cc2OC)N=C1C | 1.7 µg/mL | 0.16 µg/mL | 3.3 µg/mL | 0.05 µg/mL | 1.7 µg/mL | 0.04 µg/mL | 2.7 µg/mL | 0.5 µg/mL | 2 µg/mL | 0.33 µg/mL | 1.7 µg/mL | 0.66 µg/mL | 1.7 µg/mL | 0.13 µg/mL | 1.3 µg/mL | 0.06 µg/mL
